“And” between values parts separate entries of the source, which are not always exact repeats. Equal values may be shown once. Read-outs that look alike come from different tables or passages of the source.
Key:
Format in all cases: cell-based, human
A498 cells = assay: MTT cytotoxicity, kidney cancer cells A498; conditions: for selectivity index: MCF-10F/Beas2b vs A498
Method in brief: (§1)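 5000 cells/well; compounds 0.1–10 μM (0.1, 1, 5, 10 μM), 48 and/or 72 h. MTT 5 mg/ml, 4 h; formazan in DMSO; OD 570/630 nm. % viability vs matched-DMSO control; IC50 from dose-response curves; cell-free MTT+compound blanks.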

MCF-10F/Beas2b cells = assay: MTT cytotoxicity, healthy cells MCF-10F/Beas2b; conditions: cancer line not given; for Selectivite Index, MCF-10F/Beas2b (Table 2): MCF-10F/Beas2b vs colon or pancreas cancer cells; for Selectivite Index (SI), MCF-10F/Beas2b (Table 1): MCF-10F/Beas2b vs breast or kidney cancer cells
Method in brief: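 Cells exposed to compounds at 0.1, 1, 5 and 10 μM (DMSO vehicle-matched controls) for 48 and/or 72 h, then MTT 4 h; formazan in DMSO read at 570/630 nm. Viability as % of control; IC50 from dose-response curves. Healthy cells tested at 10-fold the cancer-cell IC50 concentration.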

MDA-MB-231 cells = assay: MTT cytotoxicity, breast cancer cells MDA-MB-231; conditions: MTT, no * mark (incubation time not given)
Method in brief: as §1

HT-29 cells = assay: MTT cytotoxicity, colon cancer cells HT-29; conditions: MTT
Method in brief: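 Cells were seeded at 5000 per well and treated next day with compound at 0.1, 1, 5 and 10 μM (final) for 48 and/or 72 h, with matched DMSO controls. MTT was added for 4 h and formazan was dissolved in DMSO and read at 570/630 nm. % viability against control gave IC50 from dose-response curves.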

MIAPaCa-2 cells = assay: Apoptosis/necrosis detection, Annexin V/PI flow cytometry, MiaPaca-2; conditions: for necrosis compared to control: MiaPaca-2; for apoptosis (early and late) compared to control: MiaPaca-2, IC50 values
Protocol: (§2) After incubation with 2-indolinone compounds (IC50 μM concentration; 48 and/or 72 hours), cells are washed twice with PBS and the cell pellet is suspended in Annexin V binding buffer. After this incubation, cells are incubated with FITC-conjugated Annexin V and propidium iodine staining solution for 15 minutes in the dark and at room temperature. Then, cells are analyzed by flow cytometry (Beckman coulter, Navios) (Wlodkowic, D., Skommer, J, Darzynkiewicz, Z. 2009. Flow cytometry-based apoptosis detection, Methods Mol Biol., 559, 1-14).

[1] = system: pancreas and kidney cancer cells; assay: Apoptosis detection, Annexin V/PI flow cytometry, pancreas and kidney cancer cells
Protocol: as §2
Whether the 2-indolinone derivatives (5) with the highest selectivity index and general TKI activity stimulated apoptosis and necrosis is determined by Annexin V and propidium iodine staining in pancreas and kidney cancer cells. Annexin V/PI flow cytometry apoptosis values of the tested compounds Y1, Y2, Y3, Y4, Y8 and Y14 are found to be 40% and above in correlation with MTT results. The apoptosis rates of the control groups and the substances are analyzed by t test in GraphPad version 9.0.

CAKI-1 cells = assay: MTT cytotoxicity, kidney cancer cells CAKI-1
Method in brief: as §1

A549 cells = assay: MTT cytotoxicity, lung cancer cells A549
Method in brief: as §1

MCF-7 cells = assay: MTT cytotoxicity, breast cancer cells MCF-7; conditions: MTT
Method in brief: as §1

[2] = MTT, no * mark (incubation time not specified)
[3] = read-out: IC50, MDA-MB-231 (breast)
[4] = no * mark (incubation time not specified)

| SMILES | IC50 (A498 cells; [2]) [µM] | Selectivite Index, MCF-10F/Beas2b (Table 2) (MCF-10F/Beas2b cells) | IC50 (MDA-MB-231 cells; [3]) [µM] | IC50 (HT-29 cells; [4]) [µM] | necrosis compared to control (MIAPaCa-2 cells) | apoptosis (early and late) compared to control (MIAPaCa-2 cells) | Annexin V/PI flow cytometry apoptosis values [1] [%] | IC50 (CAKI-1 cells; [4]) [µM] | IC50 (A549 cells; [4]) [µM] | IC50 (MCF-7 cells; [4]) [µM] | selectivity index (A498 cells) | Selectivite Index (SI), MCF-10F/Beas2b (Table 1) (MCF-10F/Beas2b cells) | IC50 (A498 cells; Homo sapiens, A498, MTT, no * mark (incubation time not given)) [µM] | IC50 (MDA-MB-231 cells; Homo sapiens, MDA-MB-231, read-out: IC50, MDA-MB-231 (breast)) [µM] | IC50 (HT-29 cells; Homo sapiens, HT-29, no * mark (incubation time not given)) [µM] | IC50 (CAKI-1 cells; Homo sapiens, CAKI-1, no * mark (incubation time not given)) [µM] | IC50 (A549 cells; Homo sapiens, A549, no * mark (incubation time not given)) [µM] | IC50 (MCF-7 cells; Homo sapiens, MCF7, no * mark (incubation time not given)) [µM] |
| --- | --- | --- | --- | --- | --- | --- | --- | --- | --- | --- | --- | --- | --- | --- | --- | --- | --- | --- |
| O=C1/C(=C\c2c[nH]c3ccccc23)c2cc(OC(F)(F)F)ccc2N1Cc1ccccc1 [Y4] | 4.23 | > 17.54 and > 18.87 | > 10 | 1.75 | did not cause necrosis | increase in apoptosis at IC50 values was statistically significant | ≥ 40 | 3.79 | > 10 | > 10 |  |  |  |  |  |  |  |  |
| Cc1ccc2c(c1)/C(=C/c1c[nH]c3ccccc13)C(=O)N2Cc1cccc(F)c1 [Y8] | 0.93 | > 18.52 | 7.36 | 5 | did not cause necrosis | increase in apoptosis at IC50 values was statistically significant | ≥ 40 | 3.28 | 8.76 | 5.79 | > 11 | > 10.75 |  |  |  |  |  |  |
| O=C1/C(=C\c2c[nH]c3ccccc23)c2ccccc2N1Cc1ccccc1 [Y1] | 4.11 | > 23.25 | 9.82 | 1.81 | did not cause necrosis | increase in apoptosis at IC50 values was statistically significant | ≥ 40 | 3.38 | 9.72 | 6.34 |  |  |  |  |  |  |  |  |
| Cc1ccc2c(c1)/C(=C/c1c[nH]c3ccccc13)C(=O)N2Cc1ccccc1 [Y3] |  | > 76.92 |  |  | did not cause necrosis | increase in apoptosis at IC50 values was statistically significant | ≥ 40 |  |  |  | > 11 | > 11.49 | 0.87 | 3.57 | 2.43 | 4.01 | 3.97 | 4.75 |
